This is an account of results in US20250296940A1, “ANNULATED 2-AMINO-3-CYANO THIOPHENES AND DERIVATIVES FOR THE TREATMENT OF CANCER” (Boehringer Ingelheim Int'l GmbH Corp., priority 2021, published 2025).

The target of this assay is T1, protein-protein interaction between SOS1 and KRAS G12C (Homo sapiens, UniProt P01116, C118S/C51S/C80L/G12C).
T1 construct: His6 (N); SOS1: in-house or Viva Biotech Ltd; host or cells: E. coli (KRAS)
T1 sequence (P01116 1-169 isoform P01116-2 G12C/C51S/C80L/C118S): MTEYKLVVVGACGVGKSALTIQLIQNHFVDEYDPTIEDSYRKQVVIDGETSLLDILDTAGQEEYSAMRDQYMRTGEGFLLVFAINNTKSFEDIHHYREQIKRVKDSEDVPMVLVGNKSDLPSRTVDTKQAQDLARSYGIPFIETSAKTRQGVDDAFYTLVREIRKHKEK
Description: KRAS::SOS1 AlphaScreen Binding Assay. The note with it: Table 19, intermediates C-3/C-4; 7.5 nM KRAS G12C, 10 μM GDP, 5 nM GST-SOS1; read-out: IC50 G12C::SOS 1. The text has this: This assay can be used to examine the potency with which compounds according to the invention binding to KRAS G12C inhibit the protein-protein interaction between SOS1 and KRAS G12C. […] Low IC50 values in this assay setting are indicative of strong inhibition of protein-protein interaction between SOS1 and KRAS:
• GST-tagged SOS1 (564_1049_GST_TEV_ECO) produced in-house • GST-TEV-SOS1 (564-1049) is purchased from Viva Biotech Ltd. • The expression construct of KRAS G12C (amino acids 1-169 of reference sequence P01116-2 (uniprot), with additional mutations: C51S, C80L, and C118S) containing a C-terminal avi-tag was obtained by gene synthesis (GeneArt, Thermo Fisher) in donor vector (pDONR-221) and transferred by recombinant cloning into pDEST17 vector bearing an N-terminal His6-tag. The protein was expressed in E. coli and the purified protein was biotinylated with the E. coli biotin ligase (BirA) before usage. • GDP (Sigma Cat No G7127) • AlphaLISA Glutathione Acceptor Beads (PerkinElmer, Cat No AL109) • AlphaScreen Streptavidin Donor Beads (PerkinElmer Cat No 6760002) • Assay plates: Proxiplate-384 PLUS, white (PerkinElmer, Cat No 6008289)
7.5 nM (final assay concentration) KRAS G12C, 10 μM (final assay concentration) GDP and 5 nM (final assay concentration) GST-SOS1 are mixed in assay buffer prior to use and kept at room temperature.
AlphaLISA Glutathione Acceptor Beads and AlphaScreen Streptavidin Donor Beads are mixed in assay buffer at a concentration of 10 μg/mL (final assay concentration) each prior to use and kept at room temperature.
Compounds are diluted to a final start concentration of 100 μM and are tested in duplicate. Assay-ready plates (ARPs) are generated using an Access Labcyte Workstation with a Labcyte Echo 550 or 555 acoustic dispenser. For compound a start concentration of 100 μM, 150 nL of compound solution is transferred per well in 11 concentrations in duplicate with serial 1:5 dilutions.
The assay is run using a fully automated robotic system in a darkened room below 100 Lux. 10 μL of KRAS::SOS1 GDP mix is added into columns 1-24 to the 150 nL of compound solution (final dilution in the assay 1:100, final DMSO concentration 1%).
After 30 minutes incubation time 5 μL of bead mix is added into columns 1-23. Plates are kept at room temperature in a darkened incubator. After further 60 minutes incubation, the signal is measured using a PerkinElmer Envision HTS Multilabel Reader using the AlphaScreen specifications from PerkinElmer. Each plate contains the following controls: • diluted DMSO+KRAS::SOS1 GDP mix+bead mix • diluted DMSO+KRAS::SOS1 GDP mix
IC50 values are calculated and analyzed using a 4 parametric logistic model.
Tables of example compounds disclosed herein contain IC50 values determined using the above assay.
The term IC50 denotes the concentration needed to halve the response being measured. As for `C[C@H](Oc1cc(N2C[C@H](C)N[C@@H](C)C2)nc(-c2onc3c2CCC[C@@]32CCCc3sc(N)c(C#N)c32)n1)[C@@H]1CCCN1C` [C-3a], the IC50 is 4.6 nM.

Consider `C[C@H](Oc1cc(N2CCNC3(CC3)C2)nc(-c2onc3c2CCC[C@@]32CCCc3sc(N)c(C#N)c32)n1)[C@@H]1CCCN1C` [C-3b], for which the IC50 stood at 2.5 nM. For `C[C@H](Oc1cc(N2C[C@H](C)NC3(CC3)C2)nc(-c2onc3c2CCC[C@@]32CCCc3sc(N)c(C#N)c32)n1)[C@@H]1CCCN1C` [C-3d] the value was 4.1 nM. To `C[C@H](Oc1nc(-c2onc3c2CCC[C@@]32CCCc3sc(N)c(C#N)c32)cc(N2CCNC3(CC3)C2)n1)[C@@H]1CCCN1C` [C-3e] belongs 45 nM.

Regarding `C[C@H](Oc1cc(N2C[C@H](C)N[C@@H](C)C2)nc(-c2noc3c2CCC[C@@]32CCCc3sc(N)c(C#N)c32)n1)[C@@H]1CCCN1C` [C-4a], the IC50 came out at 2.4 nM. For the compound `C[C@H](Oc1cc(N2CCNC3(CC3)C2)nc(-c2noc3c2CCC[C@@]32CCCc3sc(N)c(C#N)c32)n1)[C@@H]1CCCN1C` [C-4b], the IC50 was 1.9 nM. To `C[C@H](Oc1nc(-c2noc3c2CCC[C@@]32CCCc3sc(N)c(C#N)c32)cc(N2C[C@H](C)N[C@@H](C)C2)n1)[C@@H]1CCCN1C` [C-4c] belongs 37 nM; to `C[C@H](Oc1cc(N2CCNCC2)nc(-c2noc3c2CCC[C@@]32CCCc3sc(N)c(C#N)c32)n1)[C@@H]1CCCN1C` [C-4d], 3.2 nM. Consider `CNC1CCN(c2cc(O[C@@H](C)[C@@H]3CCCN3C)nc(-c3noc4c3CCC[C@@]43CCCc4sc(N)c(C#N)c43)n2)CC1` [C-4e], for which the 50% inhibitory concentration (IC50) worked out at 9 nM.
